The source made the active and inactive calls.
Tests used:
[1] = target: NAD-dependent protein deacylase sirtuin-5, mitochondrial (Homo sapiens, UniProt Q9NXA8); experiment: SIRT5 desuccinylase inhibitors, dose response, biochemical, fluorescence imaging, cherry-pick, set 5 (AID 720591);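 also: desuccinylation of succinyl peptide AMC substrate read as fluorescence after trypsin release; potency of inhibitors that lower fluorescence and may act on trypsin instead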
Major prion protein = Major prion protein (Homo sapiens, UniProt P04156); assay type: functional, cell-based
Paired box protein Pax-8 = Paired box protein Pax-8 (Homo sapiens, UniProt Q06710); experiment: inhibitors of PAX8-driven TPO luciferase reporter, dose response, RMG-I cells, cherry-pick (AID 687027); assay type: functional, cell-based;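 also: luciferase reporter driven by Pax8 target thyroperoxidase promoter measured by SteadyGlo luminescence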
[2] = cytotoxicity in OVCAR8 ovarian cancer cells, dose response, PAX8 project, cell-based, plate reader, dry powder samples (AID 743197); assay type: functional; conditions: OVCAR-8
[3] = A2780 ovarian cancer cell cytotoxicity, dose response, cytotoxicity control, plate reader, dry powder samples (AID 743046); assay type: functional, cell-based
[4] = HEK293 cell cytotoxicity, dose response, cytotoxicity control, plate reader, cherry-picked samples (AID 743446); assay type: functional, cell-based
[5] = non-specific cell cytotoxicity, dose response, cytotoxicity control for PAX8 inhibitor project, plate reader, dry powder samples (AID 743021); assay type: functional, cell-based
[6] = LGR2 antagonists, dose response, cell-based, HEK293, CRE-luciferase reporter, cherry pick, set 2 (AID 743343); assay type: functional;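 also: transfected cells were stimulated with diluted bursicon conditioned medium after compound addition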
[7] = MC4R antagonists, dose response, counter-screen for LGR2 antagonist project, cell-based, plate reader, cherry pick (AID 743444); assay type: functional;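 also: transfected HEK 293 cells stimulated with alpha-MSH peptide; potency of inhibitors of the alpha-MSH evoked signal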
[8] = A549 cell cytotoxicity, dose response, cytotoxicity control, plate reader, cherry-pick, antagonist series (AID 743412); assay type: functional, cell-based
[9] = HepG2 cell cytotoxicity, dose response, cytotoxicity control, plate reader, cherry-pick, antagonist series (AID 743416); assay type: functional, cell-based
[10] = NIH:OVCAR-3 ovarian cancer cell cytotoxicity, dose response, PAX8 inhibitor project, plate reader, dry powder samples (AID 743044); assay type: functional, cell-based
[11] = P. falciparum Dd2 growth inhibitors, dose response, SYBR Green, cherry-picked samples (AID 1159567); assay type: functional, cell-based
[12] = HepG2 cell cytotoxicity, dose response, cytotoxicity control, cherry-picked samples (AID 1159577); assay type: functional, cell-based

Structure (SMILES): NS(=O)(=O)c1cnccc1Nc1ccc(Cl)cc1
- AC50 [1]: > 30 µM (inactive)

Structure (SMILES): O=C(C1=C(O)C(=O)N(CCN2CCOCC2)C1c1cccc(Br)c1)c1cc2ccccc2o1 (stereo not given)
- IC50 (cells): > 138 µM (inactive)
- IC50 (Major prion protein): 3.22 µM (active)

Structure (SMILES): Cn1nc(C(F)(F)F)c(/C=N/OC(=O)c2ccccc2Cl)c1SCc1ccccc1Cl
- IC50 (cells): > 138 µM (inactive)
- IC50 (Major prion protein): 4.68 µM (active)

Structure (SMILES): C[C@@H]1CN([C@@H](C)CO)C(=O)c2cc(NC(=O)Nc3ccc(C(F)(F)F)cc3)ccc2O[C@@H](C)CCCCO[C@H]1CN(C)C(=O)c1ccccc1
- AC50 (Paired box protein Pax-8): 5.18 µM (active)
- AC50 [2]: > 70 µM (inactive)
- AC50 [3]: 54.3 µM (active)

Structure (SMILES): C[C@H](CO)N1C[C@H](C)[C@@H](CN(C)Cc2ccc(Cl)c(Cl)c2)OCCCC[C@H](C)Oc2ccc(NS(=O)(=O)c3ccc(F)cc3)cc2C1=O
- AC50 (Paired box protein Pax-8): 15.6 µM (active)
- AC50 [2]: > 70 µM (inactive)
- AC50 [3]: 49.6 µM (active)

Structure (SMILES): O=S(=O)(c1ccccc1F)N1CC[C@@H]2[C@H]1c1cc(-c3cccc(F)c3)ccc1N[C@@H]2CO
- AC50 (Paired box protein Pax-8): 4.09 µM (active)
- AC50 [2]: 15.6 µM (active)
- AC50 [4]: 15.3 µM (active)
- AC50 [5]: 5.52 µM (active)
- AC50 [6]: 11.1 µM (active)
- AC50 [7]: 11.2 µM (active)
- AC50 [8]: 8.1 µM (active)
- AC50 [9]: 18.6 µM (active)
- AC50 [10]: 49 µM (active)

Structure (SMILES): C[C@@H]1C=CCCO[C@]12C(=O)N(Cc1ccccc1C(F)(F)F)c1ccccc12
- AC50 [1]: > 30 µM (inactive)

Structure (SMILES): COc1ccccc1NC(=O)N1CCCCN2[C@H](CO)[C@H](c3ccc(C#Cc4ccccc4)cc3)[C@H]2C1
- AC50 [11]: 1.03 µM (active)
- AC50 [12]: 8.11 µM (active)

Structure (SMILES): CCCNC(=O)N1CC2(CCN(Cc3cccc(OC)c3)CC2)c2c(n(C)c3cc(OC)ccc23)[C@@H]1CO
- AC50 [11]: 4.94 µM (active)
- AC50 [12]: 21.1 µM (active)

Reference: ChEMBL document CHEMBL1201862, “PubChem BioAssay data set” (2004)
